In this assay the target is T1, ZCWPW2 (CW) (Homo sapiens, UniProt Q504Y3).
T1 construct: ZCWPW2 (aa 21–78); His (N, cleaved yes); made in house; host or cells: E. coli BL21 (DE3) Codon plus RIL
Description: ITC binding to CW domain of ZCWPW2. The conditions noted are these: Fig. 1c. An excerpt: The coding DNA fragments of following Tudor domains were cloned into pET28-MHL vector: SMN (aa 82–147), UHRF1 (aa 126–285), SMNDC1 (aa 53–130), TDRD3 (aa 554–611), SND1 (aa 650–910), TDRD2 (aa 327–420), FXR1 (aa 2–132), PHF1 (aa 28–87), SGF29 (aa 115–293), JMJD2A (aa 897–1101), 53BP1 (aa 1483–1606), SETDB1 (aa 190–410), LBR (aa 1–67), ZGPAT (aa 120–271). The coding regions of chromodomain of CBX7 (aa 8–62), PWWP domain of DNMT3A (aa 275–417), WD40 repeats of WDR5 (aa 24–334) and CW domain of ZCWPW2 (aa 21–78) were also subcloned into pET28-MHL vector to generate N-terminally His-tagged fusion protein. The MBT repeats of L3MBTL1 (aa 200–522) and L3MBTL2 (aa 170–625) were subcloned into pET28GST-LIC vector to generate N-terminally GST-His-tagged fusion protein. All the plasmids were generated by ligase independent cloning (Vazyme Biotech, C112 or ABclonal Technology, RK21020). […] The molecular weight of all protein samples was measured by mass spectrometry.
For the ITC measurement, the concentrated proteins were diluted into 20 mM Tris-HCl, pH 7.5, 150 mM NaCl (ITC buffer); the lyophilized compounds were dissolved in the same buffer, and the pH value was adjusted by adding 2 M NaOH or 2 M HCl. […] Compound concentrations were calculated from the mass and the volume of the solvent. […]

T1 sequence (Q504Y3 21-78): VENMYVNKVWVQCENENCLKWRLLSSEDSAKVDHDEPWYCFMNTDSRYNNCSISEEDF

Broadly, the Kd is the constant that tells how readily two partners part at equilibrium. Low values mean tighter binding, high ones weaker binding. On to `Cn1c2c(c(=N)c3c1CCC3)CCC2` [Compound 1, 4-methyl-2,3,4,5,6,7-hexahydrodicyclopenta[b,e]pyridin-8(1H)-imine], for which the equilibrium dissociation constant (Kd) is above 244 µM.
